Laboratory results from patent publication US20250339462A1, “CANCER TREATMENT USING ULTRA-HIGH CONCENTRATION GASEOUS NITRIC OXIDE AND A CHECKPOINT INHIBITOR” (Beyond Air, Inc., priority 2022, published 2025).

System: CT26 cells
Experiment: In vitro UNO exposure of CT26 cells, Annexin V/PI cell death analysis
Type: cell-based, mouse
Conditions: 25,000-100,000 ppm for 10 s, 30 s or 1 min; 24 hours following exposure; dosage and time dependent
Procedure: Preparation of cells—Mouse colon carcinoma CT26.WT cells (ATCC number: CRL-2638) were grown to a 70-80% confluency and harvested using trypsin. Following, the cells were centrifuged at 1,200 revolutions per minute (rpm)—241 G for 8 minutes, then the pellet was re-suspended in 1 ml of cell media (RPMI—1640 supplemented with 10% FBS and 1% Pen-Strep). The cells were counted using an automated cell counter and a total of 2×10^6 cells were seeded into each […] containing 9 ml cell media. The plates were then placed for 24 hours in an incubator at 37° C., 5% CO2.
UNO treatment—Following 24 hours of incubation, cell media was removed, and the plate was placed in an acrylic box stationed within an operating chemical fume hood. Prior to the initiation of treatment, the box was exposed to UV for 1 hour to reduce the chances of contamination. The box was closed and sealed with parafilm. A PVC delivery line was placed within a designated hole on the top of the box and lowered until approximately 5 cm within the box. The flowmeter was set to 1 LPM to expose the cells for the durations and concentrations described in Table 3 (control cells were untreated).
Following treatment, 9 ml of cell media were added to each well and the plate was placed for 24 hours in an incubator at 37° C., 5% CO2.
Flow cytometry—Cell media was removed to a 50 ml centrifuge tube. […]

[N]=O [UNO, nitric oxide]
Effect on viability of CT26 cancer cells: reduces viability and induces apoptosis and necrosis
